Measured values: patent US7297691B2, “Treatment of sleep disorders with cholinesterase inhibitors” (priority 2003, dated 2007)
Counter-ions that a name gives are not always drawn.

Experiments:
[1] = side effects in patients treated; format: in vivo, human
[2] = in vivo; cited from earlier work
[3] = cited from earlier work
[4] = cited from earlier work; remark: listed apart in the source
[5] = test system: cholinesterase in hemolyzed whole blood (hemolysate); test: SIGMA DIAGNOSTICS CHOLINESTERASE (PTC) kit, hemolysate ChE activity in blood samples; format: biochemical, human; settings: for Hemolysate ChE activity: blood samples from 3 patients, no Nivalin = 1.00
Procedure: (§1) SIGMA DIAGNOSTICS® CHOLINESTERASE (PTC) kit, available from Sigma Diagnostics, can be used for determining the activity and selectivity of cholinesterase inhibitors.
(§2) Reactions involved in the cholinesterase assay are as follows:
(§3) [drawing 4] 5-thio-2-nitrobenzoic acid is assessed by measuring the absorbance at 405 nm. The rate of change in absorbance at 405 nm is directly proportional to cholinesterase activity.
(§4) The activity of erythrocyte cholinesterase may be calculated on the basis of the measurement of butyrylcholinesterase (pseudocholinesterase) in serum and cholinesterase in hemolyzed whole blood (hemolysate), both measured simultaneously by the method described above, and evaluated according to the hematocrit value according to the formula HchE=(EchE×Hct*)+(PchE×(1−Hct*)) Therefore, EchE=(HchE−(PchE×(1−Hct*))/Hct*. • Hematocrit value expressed as decimal equivalent (i.e. 25%=0.25) In the above formulae, EChE is erythrocyte cholinesterase activity, PChE is plasma cholinesterase activity, HChE is hemolysate cholinesterase activity, and Hct is hematocrit value of the sample.
(§5) Another way of assessing the cholinesterase activity is to measure the plasma cholinesterase and the cholinesterase in purified hemolyzed erythrocytes. By doing this, the values are obtained directly.
(§6) Blood samples from 3 patients are tested with the Sigma test.

[6] = target: T1, butyrylcholinesterase (pseudocholinesterase) in serum (Homo sapiens, UniProt P06276); test: SIGMA DIAGNOSTICS CHOLINESTERASE (PTC) kit, serum ChE activity in blood samples; format: biochemical; settings: for Serum ChE activity: blood samples from 3 patients, no Nivalin = 1.00
T1 construct: butyrylcholinesterase (pseudocholinesterase) in serum; from tissue; host or cells: serum of patients
Procedure: as §1, §2, §3, §4, §5, §6

[7] = in humans; cited from earlier work
[8] = 1.25 μg/ml Nivalin added in vitro
[9] = 2.50 μg/ml Nivalin added in vitro
[10] = 1.25 and 2.5 μg/ml added in vitro

T1 sequence (P06276 29-602): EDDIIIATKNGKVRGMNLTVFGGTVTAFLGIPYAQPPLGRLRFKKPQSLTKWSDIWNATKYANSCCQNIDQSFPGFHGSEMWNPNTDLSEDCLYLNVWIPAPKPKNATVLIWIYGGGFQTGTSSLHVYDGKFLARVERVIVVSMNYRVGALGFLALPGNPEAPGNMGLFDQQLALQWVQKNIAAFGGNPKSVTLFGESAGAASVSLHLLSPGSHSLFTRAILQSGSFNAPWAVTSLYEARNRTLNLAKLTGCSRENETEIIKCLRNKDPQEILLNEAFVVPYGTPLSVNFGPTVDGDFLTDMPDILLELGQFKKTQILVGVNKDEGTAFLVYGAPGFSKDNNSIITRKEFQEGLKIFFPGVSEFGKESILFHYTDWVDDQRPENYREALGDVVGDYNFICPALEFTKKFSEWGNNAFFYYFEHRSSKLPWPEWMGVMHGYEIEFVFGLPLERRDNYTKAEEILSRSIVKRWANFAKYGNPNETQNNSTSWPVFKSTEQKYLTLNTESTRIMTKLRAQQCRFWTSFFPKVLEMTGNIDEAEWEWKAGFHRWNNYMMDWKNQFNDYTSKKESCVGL

Compound	more severe side effects, share of patients [1]	vomiting and dizziness, share of patients ([1]; disappearing after about one week in most cases)	slight nausea, share of cases ([1]; disappearing after about one week of treatment)	complete elimination of metabolites and galantamine [2] [h]	solubility in water ([3]; at room temperature)	toxicity ([4]; in therapeutic concentrations)	severe side effects ([4]; in therapeutically effective dosages)	reported cases of liver toxicity or serious side effects ([4]; use as anticurare agent in anesthesiology since around 1958)	Hemolysate ChE activity [5, 8]	Hemolysate ChE activity [5, 9]	change of hemolysate cholinesterase activity with increased concentration [5, 10]	Serum ChE activity [6, 8]	Serum ChE activity [6, 9]	change of serum activity as a response to the addition [6, 10]	passing the blood-brain barrier [7]	elimination half life [2]	lipid solubility [3]
[4aS-(4aα,6β,8aR*)]-4a,5,9,10 11,12-hexahydro-3-methoxy-11-methyl-6H-benzofuro[3a,3,2-ef][2]benzazepin-6-ol [Galantamine]	4-6%	5-10%	about 30%	72	only sparingly soluble	relatively low toxicity	no severe side effects	without any reported case	–	–	–	–	–	–	–	–	–
COc1ccc2c3c1O[C@H]1C[C@@H](O)C=C[C@@]31CCN(C)C2 [Nivalin, Galantamine hydrobromide]	–	–	–	–	–	–	–	–	0.96	0.86	significant reduction	0.98	0.97	do not show any statistically significant change	transverses the blood brain barrier easily	over four hours	lipid soluble
